# Active and inactive are the calls of the source.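 The calls were made as follows: active = signal falls with dose and the fitted half-maximal concentration is at or below twice the top valid tested dose; inconclusive = flat curve with 30 to 70% inhibition, or poor fit; inactive = wrong direction, flat within 30%, or potency beyond limit.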
# Biological target: Golgi-associated PDZ and coiled-coil motif-containing protein (Homo sapiens) (UniProt Q9HD26)
# Assay: blockers of CAL PDZ ligand groove binding – biochemical, fluorescence polarization, untagged CAL PDZ, cherry-pick, dose response (AID 602267)
# Settings: purified CAL PDZ, TMR-peptide fluorescence polarization, 1 h; at 50 µM (top of the series)
row,SMILES,"activity change, negative = inhibition"
1,CC(C)=Cc1oc2ccc([N+](=O)[O-])cc2c1N1CCOCC1,inactive
2,CNC(=O)c1nnn(Cc2ccccc2)c1NC(C)=O,inactive
3,CC(=O)Nc1ccc(N/C=C/C(=O)c2ccccc2)cc1,inactive
4,C=CCOC(=O)C1=C(C)Nc2nc3ccccc3n2C1c1ccncc1 (configuration not stated),inactive
5,CCCCOc1ccc(C(=O)N2CCNC(=O)C2CC(=O)OC(C)C)cc1 (configuration not stated),inactive
6,CCCOc1ccc(CC(=O)N/N=C\c2ccc(F)cc2)cc1,inactive
7,COc1ccccc1C(=O)Nc1ccc2c(c1)CN(C(=O)CSC)CC2,inactive
8,O=C(c1cccs1)N1CCN(C(=O)N2CCOCC2)CC1,inactive
9,CCCCNC(=S)NNc1c(Cl)cc(Cl)cc1Cl,inactive
10,COc1ccc(/C=N/N2CCN(c3ccccc3OC)CC2)cc1Br,inactive
11,O=C(c1cc(Br)ccc1Cl)N1CCN(c2ccccn2)CC1,inactive
12,Cc1nc(N)c(CC(Br)CBr)c(Cl)n1 (configuration not stated),inactive
13,CCN(CC)Cc1c(O)ccc2c1O/C(=C\C=C\c1ccccc1)C2=O,inactive
14,O=C(Nc1cc(Cl)ccc1N1CCOCC1)c1ccc2c(c1)OCCO2,inactive
15,CC(=O)N1CCN(c2ccc(NC(=O)C(c3ccccc3)c3ccccc3)cc2)CC1,inactive
16,CSc1ccccc1NC(=O)c1ccccc1,inactive
17,c1cc(-c2nnc(-c3ccncc3)o2)ccn1,inactive
18,CCC(=O)c1cn(CC(=O)Nc2cccc(C)c2C)c2ccccc12,inactive
19,Cc1ccc(-c2[nH]c3ccccc3c2SCCN)cc1,inactive
20,CCOC(=O)c1c(CN2CCOCC2)oc2ccc(OC(C)=O)cc12,inactive
21,COC(=O)C(C(=O)OC)c1ccc(N)cc1,inactive
22,COc1ccc(NC(=O)c2cnn(-c3ccccc3)c2C)c(OC)c1,inactive
23,COc1ccc2ccccc2c1CN(C)Cc1ccccc1,inactive
24,Cc1cccc(C(=O)Nc2ccc(C(=O)/C=C/c3ccncc3)cc2)c1,inactive

row,SMILES,"activity change, negative = inhibition"
1,Cc1ccccc1N1CCN(S(=O)(=O)c2ccccc2)CC1,inactive
2,CCc1nc(SCC(=O)c2ccccc2)c2c(=O)n(C)c(=O)n(C)c2n1,inactive
3,CN1CCN(c2ccccc2NC(=O)c2ccc(N3CCCC3)c([N+](=O)[O-])c2)CC1,inactive
4,O=C(c1ccccc1)c1c2c(cc3sc4ccccc4[n+]13)-c1cccc3cccc-2c13,inactive
5,CCN(CC)CCC(=O)N1c2ccccc2CCc2ccc(NC(=O)OC(C)C)cc21,inactive
6,Cc1cc(C)nc(/N=C(\N)N2CCc3ccccc32)n1,inactive
7,Cc1ccc(Cl)c2c(N=Nc3ccccc3)c(O)[nH]c12,inactive
8,CN(Cc1nccn1C)C(=O)c1cc(COc2ccc3ncccc3c2)on1,inactive
9,CC(=O)N1CCN(c2ccc(NC(=O)c3cccc(Cl)c3Cl)cc2)CC1,inactive
10,CSc1ccccc1NC(=O)C1CC(c2c(F)cccc2Cl)=NO1 (configuration not stated),inactive
11,CCOC(=O)N1CCN(Cc2nc3c(c(=O)n(C)c(=O)n3C)n2Cc2cccc(C)c2)CC1,inactive
12,CCCc1cc2c(cc1NC(=O)c1ccco1)OCO2,inactive
13,Cc1cccc(Nc2nc(-c3ccc(F)cc3)cs2)n1,inactive
14,Cc1cccc(NS(=O)(=O)Cc2ccccc2)c1C,inactive
15,CN(C)S(=O)(=O)c1ccc(Cl)c(NC(=O)CSc2nnnn2-c2ccc(O)cc2)c1,inactive
16,Cc1cc(=O)n2c3ccccc3n(CC(O)CN3CCN(CCO)CC3)c2c1C#N (configuration not stated),inactive
17,Oc1ccc(C=Nc2cccc3ccccc23)c(O)c1,inactive
18,Cc1cc(C)c2nc(-c3ccncc3)cc(C(=O)N3CCN(Cc4ccccc4Cl)CC3)c2c1,inactive
19,Cc1ccc(-c2nnn(CC(=O)N(CCN3CCOCC3)C(C(=O)NC(C)(C)C)c3ccc(C)o3)n2)cc1 (configuration not stated),inactive
20,c1ccc2[nH]c(CCNC3CCCCC3)nc2c1,inactive
21,COc1ccc(Cl)cc1C(=O)Nc1ccc2c(c1)OCCO2,inactive
22,Cc1ccc(C)c(N(CC(=O)NC(C)(C)C)C(=O)CCC(=O)Nc2nccs2)c1,inactive
23,O=C(NC(=S)NCCCN1CCOCC1)c1ccc(Br)cc1,inactive

# — PubChem BioAssay AID602267 (Broad Institute, 2012)
